Reference: ChEMBL document CHEMBL1137129, “Synthesis and structure-activity relationships of novel IKK-beta inhibitors. Part 2: Improvement of in vitro activity” (Bioorg Med Chem Lett, 2004)

Key:
A549 = assay: TNF-alpha-induced RANTES production in A549 cells using ELISA assay; type: functional, cell-based; conditions: Homo sapiens
[1] = molecular target: T1, Inhibitor of nuclear factor kappa-B kinase subunit beta (Homo sapiens, UniProt O14920); assay: Inhibitory activity against recombinant human I-kappa-B-kinase beta
T1 sequence (O14920 whole entry): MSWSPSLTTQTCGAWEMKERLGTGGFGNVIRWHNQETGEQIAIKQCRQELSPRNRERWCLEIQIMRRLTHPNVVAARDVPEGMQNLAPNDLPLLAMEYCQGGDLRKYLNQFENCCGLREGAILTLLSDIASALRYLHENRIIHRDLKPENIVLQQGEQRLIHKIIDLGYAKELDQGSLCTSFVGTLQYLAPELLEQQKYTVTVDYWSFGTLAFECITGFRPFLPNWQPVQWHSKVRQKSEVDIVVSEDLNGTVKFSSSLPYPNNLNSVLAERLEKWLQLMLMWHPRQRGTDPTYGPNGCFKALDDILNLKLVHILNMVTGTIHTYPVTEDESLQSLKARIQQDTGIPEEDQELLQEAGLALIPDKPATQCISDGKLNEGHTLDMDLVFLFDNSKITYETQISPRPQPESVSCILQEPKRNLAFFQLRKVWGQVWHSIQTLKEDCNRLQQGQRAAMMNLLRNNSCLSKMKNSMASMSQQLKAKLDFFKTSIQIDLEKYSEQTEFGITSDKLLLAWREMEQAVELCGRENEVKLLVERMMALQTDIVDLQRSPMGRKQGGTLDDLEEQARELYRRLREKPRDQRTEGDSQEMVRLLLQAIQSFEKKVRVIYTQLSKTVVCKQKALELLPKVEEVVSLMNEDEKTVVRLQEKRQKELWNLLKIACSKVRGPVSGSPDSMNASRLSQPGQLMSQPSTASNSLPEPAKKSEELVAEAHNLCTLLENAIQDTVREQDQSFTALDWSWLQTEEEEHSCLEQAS

[2] = molecular target: T2, Inhibitor of nuclear factor kappa-B kinase subunit alpha (Homo sapiens, UniProt O15111); assay: Inhibition of I-kappa-B-kinase alpha
T2 sequence (O15111 whole entry): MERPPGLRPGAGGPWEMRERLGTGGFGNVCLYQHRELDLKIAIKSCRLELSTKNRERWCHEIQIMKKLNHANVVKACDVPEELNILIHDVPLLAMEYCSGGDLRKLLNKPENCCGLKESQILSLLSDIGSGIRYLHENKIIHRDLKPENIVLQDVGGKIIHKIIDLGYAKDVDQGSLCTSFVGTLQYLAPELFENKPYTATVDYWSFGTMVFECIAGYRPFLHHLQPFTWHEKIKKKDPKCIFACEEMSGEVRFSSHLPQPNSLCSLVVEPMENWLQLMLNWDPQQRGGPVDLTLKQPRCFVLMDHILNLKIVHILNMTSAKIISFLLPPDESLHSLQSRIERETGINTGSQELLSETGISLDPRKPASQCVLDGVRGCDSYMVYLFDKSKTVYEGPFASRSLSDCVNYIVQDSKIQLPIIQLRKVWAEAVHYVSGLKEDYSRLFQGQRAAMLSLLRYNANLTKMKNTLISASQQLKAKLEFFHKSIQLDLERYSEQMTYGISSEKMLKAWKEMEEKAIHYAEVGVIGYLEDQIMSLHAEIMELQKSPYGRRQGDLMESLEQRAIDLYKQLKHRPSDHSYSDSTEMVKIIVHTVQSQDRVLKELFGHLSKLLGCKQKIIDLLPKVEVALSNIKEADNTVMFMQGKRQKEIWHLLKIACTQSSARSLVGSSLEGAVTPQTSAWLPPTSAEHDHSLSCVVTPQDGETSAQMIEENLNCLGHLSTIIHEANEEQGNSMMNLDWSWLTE

PBMC = assay: Tested for LPS induced TNFalpha production in human PBMC cells; type: functional, cell-based
[3] = Inhibition of Mitogen activated protein kinase kinase 4
[4] = Tested for anti-CD3/anti-CD28-induced IL-2 production in Jurkat T-cell; type: functional, cell-based; conditions: Homo sapiens

SMILES	IC50 (A549) [nM]	IC50 [1] [nM]	IC50 [2] [nM]	IC50 (PBMC) [nM]	IC50 [3] [nM]	IC50 [4] [nM]
CC(N)c1cc(-c2ccccc2O)nc(N)c1C#N (stereo not given)	4000	150				
N#Cc1c(C2CCNCC2)cc(-c2ccccc2O)nc1N	400	300				
N#Cc1c(-c2cccnc2)cc(-c2ccccc2O)nc1N		6200				
N#Cc1c(C(N)CCc2ccccc2)cc(-c2ccccc2O)nc1N (stereo not given)	15000	730				
N#Cc1c(C(N)Cc2ccccc2)cc(-c2ccccc2O)nc1N (stereo not given)	8000	60				
CC(=O)Nc1nc(-c2ccccc2O)cc(C2CCCNC2)c1C#N (stereo not given)	1500	330				
N#Cc1c(N)nc(-c2ccccc2O)c(F)c1C1CCCNC1 (stereo not given)	2000	230				
N#Cc1c(C2CCCNC2)cc(-c2ccccc2)nc1N (stereo not given)		> 20000				
N#Cc1c(CC(N)c2ccccc2)cc(-c2ccccc2O)nc1N (stereo not given)	2000	110				
N#Cc1c(C(N)Cc2ccc(F)cc2)cc(-c2ccccc2O)nc1N (stereo not given)	5000	40				
CC(C)C(N)c1cc(-c2ccccc2O)nc(N)c1C#N (stereo not given)	5000	240				
N#Cc1c(CCN)cc(-c2ccccc2O)nc1N	800	70				
CN1CCCC(c2cc(-c3ccccc3O)nc(N)c2C#N)C1 (stereo not given)	1000	230				
N#Cc1c(C2CCCNC2)cc(-c2ccccc2O)nc1N (stereo not given)	300	25	450	400	> 20000	600
CC(N)Cc1cc(-c2ccccc2O)nc(N)c1C#N (stereo not given)	3000	470				
CCCCC(N)c1cc(-c2ccccc2O)nc(N)c1C#N (stereo not given)	15000	480				
N#Cc1c(C2CCCCN2)cc(-c2ccccc2O)nc1N (stereo not given)	6000	530				
CNc1nc(-c2ccccc2O)cc(C2CCCNC2)c1C#N (stereo not given)	20	6500				
COc1ccc(CC(N)c2cc(-c3ccccc3O)nc(N)c2C#N)cc1 (stereo not given)	5000	80				
